In US9932341B2, “Use of pyrazolopyrimidine derivatives for the treatment of PI3K-delta related disorders” (Incyte Corporation, priority 2013, dated 2018):
Structures can show the parent of a compound that is named as a salt.

Biological target: PI3Kδ (p110δ/p85α) (Homo sapiens (Human), UniProt O00329)
Assay: PI3Kδ Scintillation Proximity Assay (Example A3)
Type: biochemical
Details: 20 μM ATP, 20 μM PIP2, 4 nM PI3Kδ, read-out: PI3Kδ SPA IC50
Description: [γ-^33P]ATP (10 mCi/mL) was purchased from PerkinElmer (Waltham, Mass.). […] PI3Kδ (p110δ/p85α) was purchased from Millipore (Bedford, Mass.). ATP, MgCl2, DTT, EDTA, MOPS and CHAPS were purchased from Sigma-Aldrich (St. Louis, Mo.). Wheat Germ Agglutinin (WGA) YSi SPA Scintillation Beads was purchased from GE healthcare life sciences (Piscataway, N.J.).
The kinase reaction was conducted in polystyrene 384-well matrix white plate from Thermo Fisher Scientific in a final volume of 25 μL. Inhibitors were first diluted serially in DMSO and added to the plate wells before the addition of other reaction components. The final concentration of DMSO in the assay was 0.5%. The PI3K assays were carried out at room temperature in 20 mM MOPS, pH 6.7, 10 mM MgCl2, 5 mM DTT and CHAPS 0.03%. Reactions were initiated by the addition of ATP, the final reaction mixture consisted of 20 μM PIP2, 20 μM ATP, 0.2 μCi [γ-^33P] ATP, 4 nM PI3Kδ. […] 25 mM EDTA, 400 μM ATP. The final concentration of SPA beads was 1.0 mg/mL. After the plate sealing, plates were shaken overnight at room temperature and centrifuged at 1800 rpm for 10 minutes, the radioactivity of the product was determined by scintillation counting on Topcount (PerkinElmer). IC50 determination was performed by fitting the curve of percent control activity versus the log of the inhibitor concentration using the GraphPad Prism 3.0 software.

PI3Kδ (p110δ/p85α), sequence (O00329 whole entry): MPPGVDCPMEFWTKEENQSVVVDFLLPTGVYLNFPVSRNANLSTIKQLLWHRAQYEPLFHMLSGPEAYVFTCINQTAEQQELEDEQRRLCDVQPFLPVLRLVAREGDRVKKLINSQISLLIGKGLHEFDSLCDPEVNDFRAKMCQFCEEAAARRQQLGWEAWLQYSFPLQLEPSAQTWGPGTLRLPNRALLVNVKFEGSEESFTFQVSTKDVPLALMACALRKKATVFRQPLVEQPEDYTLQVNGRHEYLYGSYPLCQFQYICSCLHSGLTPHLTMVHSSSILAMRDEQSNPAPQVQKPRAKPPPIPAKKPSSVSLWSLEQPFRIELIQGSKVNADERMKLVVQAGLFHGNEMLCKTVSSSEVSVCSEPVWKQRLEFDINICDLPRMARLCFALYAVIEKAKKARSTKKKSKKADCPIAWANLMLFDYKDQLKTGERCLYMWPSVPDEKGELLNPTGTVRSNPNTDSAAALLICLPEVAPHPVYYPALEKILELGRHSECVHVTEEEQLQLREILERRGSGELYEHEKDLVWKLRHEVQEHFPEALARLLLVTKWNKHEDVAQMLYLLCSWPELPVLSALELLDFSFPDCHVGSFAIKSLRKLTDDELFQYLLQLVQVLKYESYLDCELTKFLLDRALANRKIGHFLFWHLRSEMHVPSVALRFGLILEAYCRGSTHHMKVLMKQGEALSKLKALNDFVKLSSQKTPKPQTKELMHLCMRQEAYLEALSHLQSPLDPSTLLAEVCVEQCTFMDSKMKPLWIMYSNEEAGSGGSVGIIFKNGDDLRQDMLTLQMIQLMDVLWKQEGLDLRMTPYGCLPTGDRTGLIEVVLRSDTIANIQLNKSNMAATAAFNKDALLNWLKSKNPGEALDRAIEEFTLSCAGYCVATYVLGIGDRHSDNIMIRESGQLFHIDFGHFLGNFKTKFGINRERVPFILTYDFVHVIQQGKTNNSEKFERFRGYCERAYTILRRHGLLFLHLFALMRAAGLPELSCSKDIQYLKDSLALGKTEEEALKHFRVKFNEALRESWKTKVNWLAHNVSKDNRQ
PI3Kδ (p110δ/p85α), sequence (P27986 whole entry partner): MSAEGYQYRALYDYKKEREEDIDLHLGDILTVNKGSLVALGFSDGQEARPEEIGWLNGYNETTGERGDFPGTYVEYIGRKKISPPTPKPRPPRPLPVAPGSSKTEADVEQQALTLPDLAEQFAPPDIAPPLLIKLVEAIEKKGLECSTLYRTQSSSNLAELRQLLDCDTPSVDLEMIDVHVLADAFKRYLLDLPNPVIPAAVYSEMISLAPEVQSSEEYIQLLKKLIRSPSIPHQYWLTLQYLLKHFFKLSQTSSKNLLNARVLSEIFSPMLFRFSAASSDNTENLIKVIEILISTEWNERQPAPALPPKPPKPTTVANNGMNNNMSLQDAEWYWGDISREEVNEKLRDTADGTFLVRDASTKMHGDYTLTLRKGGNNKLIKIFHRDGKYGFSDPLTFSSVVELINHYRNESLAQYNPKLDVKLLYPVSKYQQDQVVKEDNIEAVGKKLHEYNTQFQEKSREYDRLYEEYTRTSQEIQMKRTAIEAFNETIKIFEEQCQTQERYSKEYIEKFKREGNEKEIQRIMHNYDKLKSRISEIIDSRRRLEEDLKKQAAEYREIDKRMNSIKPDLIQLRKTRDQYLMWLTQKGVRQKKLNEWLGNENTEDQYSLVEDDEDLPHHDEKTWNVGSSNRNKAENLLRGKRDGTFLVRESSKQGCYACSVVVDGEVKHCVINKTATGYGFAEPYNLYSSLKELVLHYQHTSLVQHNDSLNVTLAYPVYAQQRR

Question: For `CCOc1c(C(C)n2nc(C)c3c(N)ncnc32)cc(Cl)c(F)c1C1CN(CC(C)(C)O)C1` (racemic) [Example 140, 1-(3-{3-[1-(4-Amino-3-methyl-1H-pyrazolo[3,4-d]pyrimidin-1-yl)ethyl]-5-chloro-2-ethoxy-6-fluorophenyl}azetidin-1-yl)-2-methylpropan-2-ol], which IC50 is on record?
Answer: The IC50 was under 10 nM.

Question: Which IC50 does the source give for `CNC(=O)N1CC(c2c(C)c(Cl)cc(C(C)n3nc(C)c4c(N)ncnc43)c2OC)C1` (racemic) [Example 10, 3-{3-[1-(4-Amino-3-methyl-1H-pyrazolo[3,4-d]pyrimidin-1-yl)ethyl]-5-chloro-2-methoxy-6-methylphenyl}-N-methylazetidine-1-carboxamide] here?
Answer: Its IC50 is under 10 nM.

Question: `CCOc1c(C(C)n2nc(C)c3c(N)ncnc32)cc(Cl)c(C#N)c1-c1ccc(C(=O)N(C)C)nc1` (racemic) [Example 44, 5-(3-(1-(4-amino-3-methyl-1H-pyrazolo[3,4-d]pyrimidin-1-yl)ethyl)-5-chloro-6-cyano-2-ethoxyphenyl)-N,N-dimethylpicolinamide] was tested. Which IC50 did it give?
Answer: The IC50 was under 10 nM.

Question: How did the IC50 turn out when `COc1c(C(C)n2nc(C)c3c(N)ncnc32)cc(Cl)c(C#N)c1C1CN(CCO)C1` (single isomer, unassigned) [Example 268, 4-[1-(4-Amino-3-methyl-1H-pyrazolo[3,4-d]pyrimidin-1-yl)ethyl]-6-chloro-2-[1-(2-hydroxyethyl)azetidin-3-yl]-3-methoxybenzo nitrile] was run?
Answer: The IC50 was under 10 nM.

Question: How did the IC50 turn out when `CCC(=O)N1CC(c2c(C)c(Cl)cc(C(C)n3nc(C)c4c(N)ncnc43)c2OC)C1` (stereo not shown) [Example 3, 1-{1-[5-Chloro-2-methoxy-4-methyl-3-(1-propionylazetidin-3-yl)phenyl]ethyl}-3-methyl-1H-pyrazolo[3,4-d]pyrimidin-4-amine trifluoroacetate] was run?
Answer: Its IC50 is under 10 nM.

Question: For `COc1c(C(C)n2nc(C)c3c(N)ncnc32)cc(Cl)c(C)c1-c1ccnc(C(=O)NCCO)c1` (racemic) [Example 18, 4-{3-[1-(4-Amino-3-methyl-1H-pyrazolo[3,4-d]pyrimidin-1-yl)ethyl]-5-chloro-2-methoxy-6-methylphenyl}-N-(2-hydroxyethyl)pyridine-2-carboxamide], which IC50 is on record?
Answer: Its IC50 is under 10 nM.

Question: Which IC50 does the source give for `Cc1c(Cl)cc(C(C)n2nc(C)c3c(N)ncnc32)c(OCC(F)F)c1-c1ccc(C(=O)N(C)C)nc1` (single isomer, unassigned) [Example 189, 5-(3-(1-(4-Amino-3-methyl-1H-pyrazolo[3,4-d]pyrimidin-1-yl)ethyl)-5-chloro-2-(2,2-difluoroethoxy)-6-methylphenyl)-N,N-dimethylpicolinamide bis(2,2,2-trifluoroacetate)] here?
Answer: Its IC50 is under 10 nM.

Question: How did the IC50 turn out when `COc1c(C(C)n2nc(C)c3c(N)ncnc32)cc(Cl)c(C)c1C1CN(C(C)=O)C1` (stereo not shown) [Example 2, 1-{1-[3-(1-Acetylazetidin-3-yl)-5-chloro-2-methoxy-4-methylphenyl]ethyl}-3-methyl-1H-pyrazolo[3,4-d]pyrimidin-4-amine trifluoroacetate] was run?
Answer: The IC50 was under 10 nM.

Question: `COc1c(C(C)n2nc(C)c3c(N)ncnc32)cc(Cl)c(C#N)c1C1CN(C[C@H](C)O)C1` (stereo partly drawn) [Example 269, 4-[1-(4-Amino-3-methyl-1H-pyrazolo[3,4-d]pyrimidin-1-yl)ethyl]-6-chloro-2-{1-[(2S)-2-hydroxypropyl]azetidin-3-yl}-3-methoxybenzo nitrile] was tested. Which IC50 did it give?
Answer: The IC50 was under 10 nM.

Question: `CCOc1c(C(C)n2nc(C)c3c(N)ncnc32)cc(Cl)c(F)c1C1CNC(=O)C1` (single isomer, unassigned) [Example 346, 4-{3-[1-(4-amino-3-methyl-1H-pyrazolo[3,4-d]pyrimidin-1-yl)ethyl]-5-chloro-2-ethoxy-6-fluorophenyl}pyrrolidin-2-one] was tested. Which IC50 did it give?
Answer: Its IC50 is under 10 nM.

Question: With `COc1c(C(C)n2nc(C)c3c(N)ncnc32)cc(Cl)c(C)c1-c1cncc(C(=O)N(C)C)c1` (single isomer, unassigned) [Example 65, 5-{3-[1-(4-amino-3-methyl-1H-pyrazolo[3,4-d]pyrimidin-1-yl)ethyl]-5-chloro-2-methoxy-6-methylphenyl}-N,N-dimethylnicotinamide] as the compound, how does the IC50 read?
Answer: The IC50 was under 10 nM.

Question: With `COc1c(C(C)n2nc(C)c3c(N)ncnc32)cc(Cl)c(C)c1-c1ccnc(C(=O)N(C)CCO)c1` (racemic) [Example 19, 4-{3-[1-(4-amino-3-methyl-1H-pyrazolo[3,4-d]pyrimidin-1-yl)ethyl]-5-chloro-2-methoxy-6-methylphenyl}-N-(2-hydroxyethyl)-N-methylpyridine-2-carboxamide] as the compound, how does the IC50 read?
Answer: The IC50 was under 10 nM.

Question: Which IC50 does the source give for `COc1c(C(C)n2nc(C)c3c(N)ncnc32)cc(Cl)c(F)c1C1CN(CCO)C1` (racemic) [Example 71, 2-(3-{3-[1-(4-Amino-3-methyl-1H-pyrazolo[3,4-d]pyrimidin-1-yl)ethyl]-5-chloro-6-fluoro-2-methoxyphenyl}azetidin-1-yl)ethanol] here?
Answer: Its IC50 is under 10 nM.

Question: Which IC50 does the source give for `CNC(=O)c1ccc(-c2c(C)c(Cl)cc(C(C)n3nc(C)c4c(N)ncnc43)c2OC)cc1F` (single isomer, unassigned) [Example 22, 3′-[1-(4-Amino-3-methyl-1H-pyrazolo[3,4-d]pyrimidin-1-yl)ethyl]-5′-chloro-3-fluoro-2′-methoxy-N,6′-dimethylbiphenyl-4-carboxamide trifluoroacetate] here?
Answer: Its IC50 is under 10 nM.

Question: For `COc1c(C(C)n2nc(C)c3c(N)ncnc32)cc(Cl)c(C)c1C1CCN(C)CC1` (racemic) [Example 163, 1-{1-[5-Chloro-2-methoxy-4-methyl-3-(1-methylpiperidin-4-yl)phenyl]ethyl}-3-methyl-1H-pyrazolo[3,4-d]pyrimidin-4-amine], which IC50 is on record?
Answer: The IC50 was under 10 nM.

Question: How did the IC50 turn out when `COc1c(C(C)n2nc(C)c3c(N)ncnc32)cc(Cl)c(C)c1C1CN([C@H](C)CO)C1` (stereo partly drawn) [Example 156, (2R)-2-(3-{3-[1-(4-Amino-3-methyl-1H-pyrazolo[3,4-d]pyrimidin-1-yl)ethyl]-5-chloro-2-methoxy-6-methylphenyl}azetidin-1-yl)propan-1-ol] was run?
Answer: The IC50 was under 10 nM.

Question: For `COc1c(C(C)n2nc(C)c3c(N)ncnc32)cc(Cl)c(C#N)c1C1CN(C(=O)NC(C)(C)C)C1` (single isomer, unassigned) [Example 292, 3-{3-[1-(4-Amino-3-methyl-1H-pyrazolo[3,4-d]pyrimidin-1-yl)ethyl]-5-chloro-6-cyano-2-methoxyphenyl}-N-(tert-butyl)azetidine-1-carboxamide], which IC50 is on record?
Answer: Its IC50 is under 10 nM.

Question: How did the IC50 turn out when `COc1c(C(C)n2nc(C)c3c(N)ncnc32)cc(Cl)c(F)c1C1CN(C[C@H](C)O)C1` (stereo partly drawn) [68 (1st peak), (2S)-1-(3-{3-[1-(4-Amino-3-methyl-1H-pyrazolo[3,4-d]pyrimidin-1-yl)ethyl]-5-chloro-6-fluoro-2-methoxyphenyl}azetidin-1-yl)propan-2-ol] was run?
Answer: The IC50 was under 10 nM.

Question: Which IC50 does the source give for `COc1c(C(C)n2nc(C)c3c(N)ncnc32)cc(Cl)c(C)c1C1CN(CC#N)C1` (single isomer, unassigned) [Example 105, (3-{3-[1-(4-Amino-3-methyl-1H-pyrazolo[3,4-d]pyrimidin-1-yl)ethyl]-5-chloro-2-methoxy-6-methylphenyl}azetidin-1-yl)acetonitrile] here?
Answer: Its IC50 is under 10 nM.

Question: `CCOc1c(C(C)n2nc(C)c3c(N)ncnc32)cc(Cl)c(C#N)c1-c1cncc(S(C)(=O)=O)c1` (racemic) [Example 43, 4-[1-(4-amino-3-methyl-1H-pyrazolo[3,4-d]pyrimidin-1-yl)ethyl]-6-chloro-3-ethoxy-2-[5-(methylsulfonyl)pyridin-3-yl]benzonitrile] was tested. Which IC50 did it give?
Answer: The IC50 was under 10 nM.

Question: `COc1c(C(C)n2nc(C)c3c(N)ncnc32)cc(Cl)c(C)c1C1CN(C(C)C)C1` (single isomer, unassigned) [Example 1, 1-{1-[5-Chloro-3-(1-isopropylazetidin-3-yl)-2-methoxy-4-methylphenyl]ethyl}-3-methyl-1H-pyrazolo[3,4-d]pyrimidin-4-amine bis(trifluoroacetate)] was tested. Which IC50 did it give?
Answer: Its IC50 is under 10 nM.

Question: `COc1c(C(C)n2nc(C)c3c(N)ncnc32)cc(Cl)c(C)c1C1CN(CC(C)O)C1` (stereo in doubt) [Example 102, (2S)-1-(3-{3-[1-(4-Amino-3-methyl-1H-pyrazolo[3,4-d]pyrimidin-1-yl)ethyl]-5-chloro-2-methoxy-6-methylphenyl}azetidin-1-yl)propan-2-ol] was tested. Which IC50 did it give?
Answer: Its IC50 is under 10 nM.

Question: `CCOc1c(C(C)n2nc(C)c3c(N)ncnc32)cc(Cl)c(C)c1-c1cnn(CC(N)=O)c1` (single isomer, unassigned) [Example 203, 2-(4-(3-(1-(4-Amino-3-methyl-1H-pyrazolo[3,4-d]pyrimidin-1-yl)ethyl)-5-chloro-2-ethoxy-6-methylphenyl)-1H-pyrazol-1-yl)acetamide] was tested. Which IC50 did it give?
Answer: Its IC50 is under 10 nM.

Question: How did the IC50 turn out when `COc1c(C(C)n2nc(C)c3c(N)ncnc32)cc(Cl)c(C#N)c1C1CN(S(C)(=O)=O)C1` (single isomer, unassigned) [Example 285, 4-[1-(4-Amino-3-methyl-1H-pyrazolo[3,4-d]pyrimidin-1-yl)ethyl]-6-chloro-3-methoxy-2-[1-(methylsulfonyl)azetidin-3-yl]benzonitrile] was run?
Answer: Its IC50 is under 10 nM.

Question: With `CCOc1c(C(C)n2nc(C)c3c(N)ncnc32)cc(Cl)c(C#N)c1C1CNC1` (single isomer, unassigned) [Example 212, 4-[1-(4-Amino-3-methyl-1H-pyrazolo[3,4-d]pyrimidin-1-yl)ethyl]-2-azetidin-3-yl-6-chloro-3-ethoxybenzonitrile] as the compound, how does the IC50 read?
Answer: Its IC50 is under 10 nM.
